# Data published in patent publication US20220226340A1, “CASEIN KINASE 1 INHIBITORS FOR USE IN THE TREATMENT OF DISEASES RELATED TO DUX4 EXPRESSION SUCH AS MUSCULAR DYSTROPHY AND CANCER” (Facio Intellectual Property B.V., priority 2019, published 2022).
# Like-named read-outs stand apart in the source and are kept apart here.
# Assays:
# CK1α = CK1α (Homo sapiens, UniProt P48729); experiment: CK1α inhibition IC50; format: biochemical
# p38α = p38α (Homo sapiens, UniProt Q16539); experiment: p38α inhibition IC50; format: biochemical
# primary FSHD cells = experiment: fusion index (myotube fusion) readout of the high-content assay in primary FSHD cells; format: cell-based, human; details: for effect on fusion index / myotube fusion: 72 h treatment, compound present during whole differentiation; for myotube formation in the presence of increasing concentrations of losmapimod: 72 h, CK1 inhibitor combined with losmapimod, microscopic images
# Text: (§1) A quantitative assay readout was developed based on script-based image analysis. […] To analyse the images, an automated script was developed, enabling the detection of nuclei, myotube borders and DUX4 signals, with the script also detecting artefacts to reduce false positive signals. The script enabled multiple validated readouts including the number of DUX4 positive nuclei and nuclei clusters, the fusion index, myotube area, myotube width and myotube skeleton length (see FIG. 2). Additionally, the total nuclei count was included as a measure of cell loss or compound toxicity.
# (§2) Compounds are administered either 15 h before fixation, resembling the original screening protocol, or 72 h before fixation (grey arrow). In the latter case, compounds are present during the whole differentiation process.
# DUX4 [1] = experiment: high-content immunocytochemistry assay of endogenous DUX4 expression in differentiating primary FSHD myotubes; format: cell-based, human; details: for EC50: Homo sapiens, Myotube
# Text: as §1
# A compound library containing approximately 5000 annotated compounds was screened in the high-content assay. For this purpose, primary myoblasts were seeded in 384 well plates after which the growth medium was replaced with differentiation medium. After 3 days of differentiation, cells were treated with library compounds (in duplicate on different screening plates) for 15 h, after which they were fixed and stained with antibodies against DUX4, antibodies against myosin heavy chain (MHC), and with DAPI (4′,6-diamidino-2-phenylindole). Script-based analysis provided readouts for DUX4 expression (count of DUX4-positive nuclei or DUX4 intensity) and for potential toxicity (fusion index and nuclei count).
# Compounds were incubated with primary FSHD cells for 15 hours, as indicated by the arrow in FIG. 4A.
# as §2
# pancreatic tumor cell = details: in vitro and in vivo; cited from earlier work
# CK1δ = CK1δ (Homo sapiens, UniProt P48730); experiment: CK1δ inhibition IC50; format: biochemical
# CK1ε = CK1ε (Homo sapiens, UniProt P49674); experiment: CK1ε inhibition IC50; format: biochemical
# DUX4 [2] = details: immortalised differentiated myotube cultures; cited from earlier work
# [3] = Table 7, p38 compounds, read-out: IC50 CK1a
# [4] = Table 7, p38 compounds, read-out: IC50 p38
# [5] = 72 h, Table 4, 72 h treatment protocol, read-out: DUX4 EC50
# [6] = 72 h, Table 6, 72 h treatment protocol, read-out: DUX4 EC50
# CK1α, sequence (P48729 whole entry): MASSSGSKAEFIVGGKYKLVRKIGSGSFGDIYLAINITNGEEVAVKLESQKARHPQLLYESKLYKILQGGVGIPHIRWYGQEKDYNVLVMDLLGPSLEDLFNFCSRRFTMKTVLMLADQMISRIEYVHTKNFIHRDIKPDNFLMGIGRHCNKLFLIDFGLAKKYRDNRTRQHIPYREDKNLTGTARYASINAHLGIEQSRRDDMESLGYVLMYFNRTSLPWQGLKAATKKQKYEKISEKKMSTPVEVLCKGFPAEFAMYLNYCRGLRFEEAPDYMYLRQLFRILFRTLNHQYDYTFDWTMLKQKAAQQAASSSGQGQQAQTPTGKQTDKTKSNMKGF
# p38α, sequence (Q16539 whole entry, the tested form may be a part): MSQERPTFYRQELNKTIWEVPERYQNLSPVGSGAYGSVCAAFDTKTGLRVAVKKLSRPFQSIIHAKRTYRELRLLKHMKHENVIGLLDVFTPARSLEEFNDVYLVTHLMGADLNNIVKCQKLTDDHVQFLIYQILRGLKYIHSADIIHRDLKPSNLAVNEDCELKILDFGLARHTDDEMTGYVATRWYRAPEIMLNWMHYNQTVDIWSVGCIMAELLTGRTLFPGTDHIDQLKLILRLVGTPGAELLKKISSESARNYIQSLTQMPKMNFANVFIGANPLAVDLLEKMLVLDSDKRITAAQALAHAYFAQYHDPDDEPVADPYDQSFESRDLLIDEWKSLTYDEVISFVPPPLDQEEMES
# CK1ε, sequence (P49674 whole entry): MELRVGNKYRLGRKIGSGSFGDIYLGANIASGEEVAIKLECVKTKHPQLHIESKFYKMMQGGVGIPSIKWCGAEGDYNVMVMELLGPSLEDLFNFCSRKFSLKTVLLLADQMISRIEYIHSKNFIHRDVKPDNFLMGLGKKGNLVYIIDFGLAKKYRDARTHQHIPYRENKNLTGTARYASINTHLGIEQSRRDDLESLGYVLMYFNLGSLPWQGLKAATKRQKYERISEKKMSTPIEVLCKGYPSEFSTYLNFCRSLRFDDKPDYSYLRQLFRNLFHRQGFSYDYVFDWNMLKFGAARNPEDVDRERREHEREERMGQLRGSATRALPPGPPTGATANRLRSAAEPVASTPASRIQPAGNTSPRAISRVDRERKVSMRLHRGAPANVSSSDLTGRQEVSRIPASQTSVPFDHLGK
# CK1δ, sequence (P48730 whole entry): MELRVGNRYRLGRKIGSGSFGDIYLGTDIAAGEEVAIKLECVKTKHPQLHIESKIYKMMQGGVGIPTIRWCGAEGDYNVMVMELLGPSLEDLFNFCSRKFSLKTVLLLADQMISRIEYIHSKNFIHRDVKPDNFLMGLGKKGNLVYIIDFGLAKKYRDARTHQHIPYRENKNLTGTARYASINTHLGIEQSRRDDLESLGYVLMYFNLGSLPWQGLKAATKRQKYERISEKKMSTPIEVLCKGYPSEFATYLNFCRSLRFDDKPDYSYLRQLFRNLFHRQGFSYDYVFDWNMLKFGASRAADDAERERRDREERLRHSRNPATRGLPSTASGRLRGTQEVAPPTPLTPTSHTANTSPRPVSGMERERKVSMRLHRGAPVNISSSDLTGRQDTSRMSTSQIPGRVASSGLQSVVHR
EC50 (DUX4 [1]; [5]) [nM],EC50 (DUX4 [1]; [6]) [nM],"IC50 (CK1δ; Table 6, read-out: IC50 CK1δ) [nM]","IC50 (p38α; Table 6, read-out: IC50 p38α) [nM]","IC50 (p38α; Table 4, read-out: p38a IC50) [nM]","IC50 (CK1δ; Table 4, read-out: CK1 d IC50) [nM]","IC50 (CK1α; Table 4, read-out: CK1 a IC50) [nM]","IC50 (CK1α; Table 6, read-out: IC50 CK1α) [nM]",SMILES,other results
–,–,–,–,–,–,–,–,"Cc1cc(F)ccc1-c1nc(NC(CO)CO)nc2c1ccc(=O)n2-c1c(F)cccc1F [SB-681323, reference compound]",IC50 (CK1α; [3]): > 10000 nM; IC50 (p38α; [4]): 11 nM; effect on fusion index / myotube fusion (primary FSHD cells): inhibited the fusion index
–,–,–,–,–,–,–,–,CN1Cc2nccc(-c3cn(C)nc3-c3ccc(F)cc3)c2C1=O [Nr. 5],"EC50 (DUX4 [1]; 15 h, read-out: DUX4 EC50): 1890 nM; EC50 (DUX4 [1]; 15 h, read-out: EC50 for DUX4 repression): 1900 to 3100 nM; EC50 (DUX4 [1]; 72 h, read-out: DUX4 EC50): 6700 nM; myotube formation in the presence of increasing concentrations of losmapimod (primary FSHD cells): myotube formation is still intact"
–,–,–,–,–,–,–,–,COc1cc(OC)c(C=C2C(O)=Nc3ccccc32)c(OC)c1 [IC261],pancreatic tumor cell growth (pancreatic tumor cell): reduces pancreatic tumor cell growth
–,–,–,–,–,–,–,–,"Cc1ccc(C(=O)NC2CC2)cc1-n1ncc(C(=O)c2cccc(C#N)c2)c1N [Acumapimod, reference compound]",IC50 (CK1α; [3]): > 10000 nM; IC50 (p38α; [4]): 22 nM; effect on fusion index / myotube fusion (primary FSHD cells): inhibited the fusion index
4800,4800,33,–,–,–,–,–,Cn1cc(-c2ccnc3c2C(=O)OC3)c(-c2ccc(F)cc2)n1 [Nr. 4],"myotube formation in the presence of increasing concentrations of losmapimod (primary FSHD cells): myotube formation is still intact; IC50 (CK1ε; Table 6, read-out: IC50 CK1ε): 52 nM"
10 to 60,10,16,15,–,–,–,–,Fc1ccc(-c2nc3ccc(N4CCNCC4)nn3c2-c2ccncc2)cc1 [Nr. 8],"effect on DUX4 (DUX4 [1]; 72 h treatment): near maximal DUX4 inhibition; myotube formation in the presence of increasing concentrations of losmapimod (primary FSHD cells): myotube formation is still intact; IC50 (CK1ε; Table 6, read-out: IC50 CK1ε): 9 nM"
620,620,–,–,74.3,19.8,–,–,"Nc1nccc(-c2c(-c3ccc(F)cc3)ncn2C2CCN(Cc3ccon3)CC2)n1 [PF-5006739, reference compound]","IC50 (p38α; Table 3, read-out: p38a IC50): 74.3 nM; IC50 (CK1δ; Table 3, read-out: CK1 d IC50): 19.8 nM; IC50 (CK1ε; Table 3, read-out: CK1 e IC50): 26.8 nM; IC50 (CK1ε; Table 4, read-out: CK1 e IC50): 26.8 nM"
–,–,–,–,–,–,–,–,"COc1cc(OC)c2c(=O)[nH]c(-c3cc(C)c(OCCO)c(C)c3)nc2c1 [RVX-208, reference compound]",effect on DUX4 expression (DUX4 [1]; irrespective of treatment time (15 h or 72 h)): did not show any effect on DUX4 expression; expression of DUX4 (DUX4 [2]): can inhibit the expression of DUX4
5000,5000,42,–,–,–,–,–,COCCN1Cc2nccc(-c3cn(C)nc3-c3ccc(F)cc3)c2C1=O [Nr. 7],"IC50 (CK1ε; Table 6, read-out: IC50 CK1ε): 92 nM"
780,780,115,16,15.9,115,1830,1830,"OCCC#Cc1nc(-c2ccc(F)cc2)c(-c2ccncc2)n1CCCc1ccccc1 [RWJ 67657, reference compound]",–
8100,8100,–,–,–,–,–,–,Cn1cc(-c2ccnc3c2C(=O)N(C2CCOCC2)C3)c(-c2ccc(F)cc2)n1 [Nr. 6],"IC50 (CK1ε; Table 3, read-out: CK1 e IC50): 72.4 nM; IC50 (CK1ε; Table 4, read-out: CK1 e IC50): 72.4 nM"
480,480,58,22,21.7,55.7,331,331,Fc1ccc(-c2nc3sc(N4CCNCC4)nn3c2-c2ccncc2)cc1 [Nr. 24],–
340,340,29,23,23,29,65,65,CN1CCN(c2ccc3nc(-c4ccc(F)cc4)c(-c4ccncc4)n3n2)CC1 [Nr. 2],–
8200,8200,46,312,312,46.5,636,636,Cn1cc(-c2ccnc(N)n2)c(-c2ccc(F)cc2)n1 [Nr. 18],–
390,390,45,42,42,45,270,270,Fc1ccc(-c2nc3ccc(N4CCC(N5CCCC5)CC4)nn3c2-c2ccncc2)cc1 [Nr. 14],–
2400,2400,2090,1250,1250,2090,> 10000,> 10000,Fc1ccc(-c2nc3ccc(N4CCOCC4)nn3c2-c2ccncc2)cc1 [Nr. 23],–
–,–,–,–,–,–,–,–,"CC(C)(C)Cn1c(N)nc2ccc(-c3[nH]c(C(C)(C)C)nc3-c3ccc(F)cc3)nc21 [LY2228820, reference compound]","IC50 (CK1α; [3]): > 10000 nM; IC50 (p38α; [4]): 14 nM; effect on fusion index / myotube fusion (primary FSHD cells): inhibited the fusion index; IC50 (CK1δ; Table 7, p38 compounds, read-out: IC50 CK1d): 2780 nM"
40,40,18,–,13.2,18.5,29.5,29,CC1(C)CN(c2ccc3nc(-c4ccc(F)cc4)c(-c4ccncc4)n3n2)CCN1 [Nr. 1],"EC50 (DUX4 [1]; 15 h, Table 3, 15 h treatment protocol, primary FSHD cells, read-out: EC50 for DUX4 repression): 40 nM; IC50 (CK1α; Table 3, read-out: CK1 a IC50): 29.5 nM; IC50 (p38α; Table 3, read-out: p38a IC50): 13.2 nM; IC50 (CK1δ; Table 3, read-out: CK1 d IC50): 18.5 nM; IC50 (CK1ε; Table 3, read-out: CK1 e IC50): 12.4 nM; IC50 (CK1ε; Table 4, read-out: CK1 e IC50): 12.4 nM"
